Measurements from patent publication US20060270634A1, “Acetal phosphate-derived LPA mimics, PPARgamma activators, and autotaxin inhibitors” (priority 2005, published 2006).
Where two headings read alike, the source gives them in different places.

Experiments:
PPARγ = biological target: T1, PPARγ (Homo sapiens, UniProt P37231); experiment: PPARγ activation, PPRE-Acox-Rluc reporter gene assay in CV1 cells; type: cell-based; conditions: for PPARγ: Table 3; for PPARγ activation in words: FIG. 9: 10 μM, 20 h
T1 construct: expressed in transfected cells; host or cells: CV1 cells (African green monkey kidney)
T1 sequence (P37231 1-505): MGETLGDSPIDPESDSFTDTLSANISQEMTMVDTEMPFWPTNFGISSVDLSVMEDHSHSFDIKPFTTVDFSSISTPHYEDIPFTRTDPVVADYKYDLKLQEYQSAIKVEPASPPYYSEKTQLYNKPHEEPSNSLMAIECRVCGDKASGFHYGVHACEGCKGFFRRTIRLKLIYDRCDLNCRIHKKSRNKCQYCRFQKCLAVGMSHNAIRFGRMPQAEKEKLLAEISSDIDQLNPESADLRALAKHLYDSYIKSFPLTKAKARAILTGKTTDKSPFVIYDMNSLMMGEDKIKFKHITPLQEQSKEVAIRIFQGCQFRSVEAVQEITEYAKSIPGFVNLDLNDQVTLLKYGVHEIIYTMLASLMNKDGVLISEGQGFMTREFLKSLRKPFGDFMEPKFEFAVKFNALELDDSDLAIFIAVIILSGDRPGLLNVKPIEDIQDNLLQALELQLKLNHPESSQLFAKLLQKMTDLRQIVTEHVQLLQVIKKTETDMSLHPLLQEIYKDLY
Protocol: (§1) The biological effects of all synthesized compounds were testing using three high-throughput assays. First, intracellular calcium transients in rat hepatoma (RH777, an LPA receptor null cell) cell lines individually expressing either LPA1, LPA2, and LPA3 receptors were analyzed to evaluate compounds as agonists or antagonists. […] The PPRE-Acox-Rluc construct contains a renilla luciferase coding region, an acyl-CoA oxidase coding region, and a PPAR response element coding region. Third, inhibition of the lysophospholipase D autotoxin was determined using a previously described procedure.
PPARγ is a lipid-activated transcription factor that belongs to the nuclear hormone superfamily. The inventors examined the activity of all synthesized Darmstoff analogs as PPARγ activators in vitro in CV1 cells using a PPRE-Acox-Rluc reporter gene assay. Rosiglitazone, a known PPARγ agonist, was used as a positive control for comparison.
RH7777 cells, which lack LPA GPCR, were stably transfected with individual LPA1, LPA2 and LPA3 receptors and used for the in vitro screening.
Unlike the enantiospecific responses compounds at LPA GPCR by APA analogs, there was no stereoselectivity observed in PPARγ activation by these analogs.

[1] = biological target: lysophospholipase D (autotaxin, ATX) (Homo sapiens, UniProt Q13822); experiment: Inhibition of lysophospholipase D autotaxin; type: biochemical; conditions: Table 3
Protocol: as §1
LPA is liberated as the product of lysophosphatidylcholine hyrolysis by the lysophospholipase D, autotaxin (ATX). The inventors screened Darmstoff analogs for ATX inhibition. As indicated by the data, all tested analogs are capable of ATX inhibition independently of their ligand properties at LPA GPCR and PPARγ.

LPA2 = LPA2 (Homo sapiens, UniProt Q9HBW0); experiment: Ca2+ transients in RH7777 cells expressing LPA2 (agonist / inhibition of LPA response)
Protocol: (§2) Synthesized compounds were tested for induction and inhibition of LPA-induced calcium transients in rat hepatoma (RH7777) cell lines that stably express individual LPA1, LPA2, and LPA3 receptors as described in the literature using a FlexStation II automated fluorimeter (Molecular Devices, Sunnyvale, Calif.).

LPA3 [2] = biological target: T2, LPA3 (Homo sapiens, UniProt Q9UBY5); experiment: Ca2+ transients in RH7777 cells expressing LPA3 (agonist / inhibition of LPA response); conditions: for EC50: read-out: LPA3 EC50; for IC50: read-out: LPA3 IC50
T2 sequence (Q9UBY5 1-353): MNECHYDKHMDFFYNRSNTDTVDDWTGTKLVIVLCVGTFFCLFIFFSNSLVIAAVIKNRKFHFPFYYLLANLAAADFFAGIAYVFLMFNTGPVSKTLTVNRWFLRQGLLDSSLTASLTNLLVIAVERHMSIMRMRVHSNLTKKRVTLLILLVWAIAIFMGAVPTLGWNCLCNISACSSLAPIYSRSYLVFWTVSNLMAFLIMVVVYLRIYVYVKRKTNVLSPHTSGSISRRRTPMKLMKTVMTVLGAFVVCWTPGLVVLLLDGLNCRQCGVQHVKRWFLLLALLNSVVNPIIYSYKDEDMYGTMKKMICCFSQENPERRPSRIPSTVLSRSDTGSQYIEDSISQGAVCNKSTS
Protocol: as §2

PC3 cells = experiment: Calcium mobilization response in PC3 cells; type: cell-based; conditions: for IC50: read-out: PC3 cells IC50
LPA1 [3] = biological target: T3, LPA1 (Homo sapiens, UniProt Q92633); experiment: Ca2+ transients in RH7777 cells expressing LPA1 (agonist / inhibition of LPA response)
Protocol: as §2

LPA1 [4] = biological target: T3, LPA1; design: expressed in transfected cells; host or cells: RH7777 rat hepatoma cells; conditions: cited from earlier work
LPA3 [5] = biological target: T2, LPA3; design: expressed in transfected cells; host or cells: RH7777 rat hepatoma cells; conditions: cited from earlier work
[6] = Table 3, maximal efficacy of drug/maximal efficacy of LPA 18:1

Sequence of LPA2 (Q9HBW0 whole entry, species assumed): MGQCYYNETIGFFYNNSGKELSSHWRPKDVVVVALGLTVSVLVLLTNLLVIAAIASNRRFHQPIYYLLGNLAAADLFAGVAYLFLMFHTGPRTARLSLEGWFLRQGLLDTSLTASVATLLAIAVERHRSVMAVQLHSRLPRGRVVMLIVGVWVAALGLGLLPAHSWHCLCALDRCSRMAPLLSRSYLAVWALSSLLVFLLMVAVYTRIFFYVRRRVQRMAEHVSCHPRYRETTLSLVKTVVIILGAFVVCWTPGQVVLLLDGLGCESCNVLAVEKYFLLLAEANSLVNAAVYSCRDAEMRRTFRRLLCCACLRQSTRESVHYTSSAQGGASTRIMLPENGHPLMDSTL
T3 sequence (Q92633 whole entry, species assumed): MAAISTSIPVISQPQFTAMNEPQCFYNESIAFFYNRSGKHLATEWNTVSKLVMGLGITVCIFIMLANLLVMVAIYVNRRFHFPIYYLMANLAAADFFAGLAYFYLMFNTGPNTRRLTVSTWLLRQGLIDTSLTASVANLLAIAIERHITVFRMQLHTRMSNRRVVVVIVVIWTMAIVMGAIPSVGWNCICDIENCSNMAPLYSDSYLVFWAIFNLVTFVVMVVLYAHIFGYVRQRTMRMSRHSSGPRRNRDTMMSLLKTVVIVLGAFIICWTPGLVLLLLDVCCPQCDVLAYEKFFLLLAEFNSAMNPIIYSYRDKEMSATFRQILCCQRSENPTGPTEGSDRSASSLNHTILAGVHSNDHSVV

With `CCCCCCCCC=CCCCCCCCC1OCC(COP(=O)([O-])O)O1.[K+]` (mixture of isomers) [Analog 13] the PPARγ (PPARγ) was “Agonist”, the “ATX (% inhib.)” value [1] was 30% and the IC50 [1] was 141 nM. The “LPA2 agonist/antagonist activity in words” value (LPA2) was “inhibited LPA1-3 receptors”, the IC50 (LPA2; read-out: LPA2 IC50, Table 3) was over 30000 nM and the “LPA3 agonist/antagonist activity in words” value (LPA3 [2]) was “LPA1/3 antagonist activity”. The Ki (LPA3 [2]; read-out: LPA3 (Ki), Table 3) was 548 nM, the EC50 (LPA3 [2]; Table 3) was over 30000 nM and the IC50 (LPA3 [2]; Table 3) was 527 nM.
In the case of `CCCCCCCCCCCCC1OCC(COP(=O)(O)O)O1` (stereo not shown) [Analog 12], the PPARγ (PPARγ) is reported as “Agonist”, the “ATX (% inhib.)” value [1] is reported as 26% and the IC50 [1] is reported as 232 nM. For the same compound, the IC50 (PC3 cells; Homo sapiens, PC-3, inhibition of 100 nM LPA response) was 1860 nM, the IC50 (PC3 cells; Homo sapiens, PC-3, inhibition of 300 nM LPA response) was 2110 nM and the Ki (LPA1 [3]) was 652 nM. For the same compound, the “LPA1 agonist/antagonist activity in words” value (LPA1 [3]) was “pantagonist”, the IC50 (LPA1 [3]; LPA1 IC50, 200 nM LPA) was 1110 nM and the IC50 (LPA1 [3]; LPA1 IC50, 300 nM LPA) was 2150 nM. It also gave an IC50 (LPA1 [3]; LPA1 IC50, Table 3) of 1110 nM, an IC50 (LPA1 [3]; RH-LPA1 cells IC50, inhibition of 200 nM LPA response) of 1110 nM and an IC50 (LPA1 [3]; RH-LPA1 cells IC50, inhibition of 300 nM LPA response) of 2150 nM. The EC50 (LPA1 [3]; read-out: LPA1 EC50, Table 3) was over 30000 nM, the “LPA2 agonist/antagonist activity in words” value (LPA2) was “pantagonist” and the EC50 (LPA2; LPA2 EC50, *transient) was 1180 nM. The EC50 (LPA2; LPA2 EC50, Table 3) was over 30000 nM, the IC50 (LPA2; RH-LPA2 cells IC50, inhibition of 200 nM LPA response) was 397 nM and the IC50 (LPA2; RH-LPA2 cells IC50, inhibition of 300 nM LPA response) was 657 nM. The Ki (LPA3 [2]) was 681 nM, the “LPA3 agonist/antagonist activity in words” value (LPA3 [2]) was “pantagonist” and the EC50 (LPA3 [2]; Table 3) was over 30000 nM. For the same compound, the IC50 (LPA3 [2]; 200 nM LPA) was 2870 nM and the IC50 (LPA3 [2]; Table 3) was 2870 nM.
With `CCCCCCCC/C=C\CCCCCCCC1OCC(COP([O-])(O)=S)O1.[K+]` (stereo not shown) [Analog 14, 2-Heptadec-8-enyl-(1,3)dioxolan-4yl methyldipotassium thiophosphate] the EC50 (PC3 cells; Homo sapiens, PC-3, compound alone) was 1370 nM, the Emax (PC3 cells; Homo sapiens, PC-3, of the LPA-alone max. response, read-out: PC3 cells maximal response) was about 86% and the “PC3 cells effect of compound alone” value (PC3 cells; compound alone) was “stimulatory effect. Its maximal”. The EC50 (LPA1 [3]; LPA1 EC50) was 981 nM, the Emax (LPA1 [3]; RH7777, read-out: RH-LPA1 cells maximal response) was about 50% and the EC50 (LPA1 [3]; RH-LPA1 cells EC50, compound alone) was 2170 nM. The “LPA1 effect in words” value (LPA1 [3]; Tables 2, 4, 6) was “Partial agonist”, the “RH-LPA1 cells effect of compound alone” value (LPA1 [3]; compound alone) was “stimulatory effect. Its maximal” and the “LPA2 effect in words” value (LPA2; *transient) was “almost full agonist”. It also gave an EC50 (LPA2; LPA2 EC50, *transient) of 34 nM, an Emax (LPA2; RH7777, read-out: RH-LPA2 cells maximal response) of about 74% and an EC50 (LPA2; RH-LPA2 cells EC50, compound alone) of 639 nM. The “RH-LPA2 cells effect of compound alone” value (LPA2; compound alone) was “stimulatory effect. Its maximal”, the “LPA3 effect in words” value (LPA3 [2]; Tables 2, 4, 6) was “Partial agonist” and the EC50 (LPA3 [2]) was 639 nM.
In the case of `CCCCCCCCC=CCCCCCCCC1OCC(COP(=O)([O-])O)O1.[K+]` (stereo not shown) [Analog 37], the PPARγ (PPARγ) is reported as “Agonist”, the “ATX (% inhib.)” value [1] is reported as 46% and the IC50 [1] is reported as 238 nM. The EC50 (LPA2; read-out: LPA2 EC50, Table 3) was over 10000 nM, the IC50 (LPA2; read-out: LPA2 IC50, Table 3) was over 30000 nM and the “LPA3 agonist/antagonist activity in words” value (LPA3 [2]) was “LPA3 antagonists”. The Ki (LPA3 [2]; read-out: LPA3 (Ki), Table 3) was 241 nM, the EC50 (LPA3 [2]; Table 3) was over 30000 nM and the IC50 (LPA3 [2]; Table 3) was 484 nM.
For `CCCCCCCCC=CCCCCCCCC1OCC(COP([O-])(O)=S)O1.[K+]` (stereo not shown) [Analog 38], the PPARγ (PPARγ) was “Agonist”, the “ATX (% inhib.)” value [1] was 64% and the IC50 [1] was 363 nM. For the same compound, the “LPA1 agonist/antagonist activity in words” value (LPA1 [3]) was “pan-agonists”, the “LPA1 (Emax)” value (LPA1 [3]; [6]) was 68% and the EC50 (LPA1 [3]; read-out: LPA1 EC50, Table 3) was 2260 nM. For the same compound, the IC50 (LPA1 [3]; read-out: LPA1 IC50, Table 3) was over 30000 nM, the “LPA2 agonist/antagonist activity in words” value (LPA2) was “pan-agonists” and the “LPA2 (Emax)” value (LPA2; [6]) was 72%. For the same compound, the EC50 (LPA2; read-out: LPA2 EC50, Table 3) was 1540 nM, the IC50 (LPA2; read-out: LPA2 IC50, Table 3) was over 30000 nM and the “LPA3 agonist/antagonist activity in words” value (LPA3 [2]) was “full agonists”. For the same compound, the “LPA3 (Emax)” value (LPA3 [2]; [6]) was 102%, the EC50 (LPA3 [2]; Table 3) was 204 nM and the IC50 (LPA3 [2]; Table 3) was over 30000 nM.
For `CCCCCCCCNC(=O)[C@H](COP(=O)(O)O)NC(=O)CCCCCCC` [Cpd 19a], the “PPARγ activation in words” value (PPARγ) was “agonist of PPARγ”, the “LPA1 agonist/antagonist activity in words” value (LPA1 [3]) was “no effect” and the “LPA2 agonist/antagonist activity in words” value (LPA2) was “no effect”. For the same compound, the “LPA3 agonist/antagonist activity in words” value (LPA3 [2]) was “selective LPA3 antagonist”, the Ki (LPA3 [2]; read-out: LPA3 (Ki), Table 5) was 196 nM and the IC50 (LPA3 [2]; Table 5) was 414 nM.
In the case of `CCCCCCCCNC(=O)[C@@H](COP(=O)(O)O)NC(=O)CCCCCCC` [Cpd 19b], the “PPARγ activation in words” value (PPARγ) is reported as “no effect”, the “LPA1 agonist/antagonist activity in words” value (LPA1 [3]) is reported as “no effect” and the “LPA2 agonist/antagonist activity in words” value (LPA2) is reported as “no effect”. The “LPA3 agonist/antagonist activity in words” value (LPA3 [2]) was “true LPA3 receptor specific antagonist”, the Ki (LPA3 [2]; read-out: LPA3 (Ki), Table 5) was 489 nM and the IC50 (LPA3 [2]; Table 5) was 935 nM.
In the case of “dioctanoyl glycerol pyrophosphate [DGPP 8:0]”, the “LPA1 activity in words, previously reported” value (LPA1 [4]) is listed as “antagonists” and the “LPA3 activity in words, previously reported” value (LPA3 [5]) is listed as “antagonists”.
